Data reported in patent US20230146675A1, “PYRIMIDO[5,4-d]PYRIMIDINE DERIVATIVES AS ENT INHIBITORS FOR THE TREATMENT OF CANCERS, AND COMBINATION THEREOF WITH ADENOSINE RECEPTOR ANTAGONISTS” (ITEOS BELGIUM SA, priority 2020, published 2023).

Assays:
[1] = target: T1, Human phosphodiesterase-4B1 (Homo sapiens, UniProt Q07343); assay: PDE4B1 (h) assay; format: biochemical
T1 construct: host or cells: Sf9 cells
Protocol: (§1) The test compound (compound 72), reference compound or water (control) were added to a buffer containing 40 mM Tris/HCl (pH 7.4) and 8 mM MgCl2, 450 nM cAMP and 0.25 μCi [3H]cAMP. Thereafter, the reaction was initiated by addition of the enzyme (about 10 U) and the mixture was incubated for 20 min at 22° C. For basal control measurements, the enzyme was omitted from the reaction mixture. Following incubation SPA beads were added. After 30 min at 22° C. under shaking, the amount of [3H]5′AMP was quantified with a scintillation counter (MicroBeta, Perkin Elmer). The results were expressed as a percent inhibition of the control enzyme activity. The standard inhibitory reference compound was Ro 20-1724, which was tested in each experiment at several concentrations to obtain an inhibition curve from which its IC50 value was calculated. • Human phosphodiesterase-4B1 quantified by measuring the formation of 5′AMP from cAMP using a human recombinant enzyme expressed in Sf9 cells.
(§2) The test compound (compound 72), reference compound or water (control) were added to a buffer containing 40 mM Tris/HCl (pH 7.4), 8 mM MgCl2 and 1.7 mM EGTA/NaOH, 450 nM cAMP and 0.25 μCi [3H]cAMP. […] After 30 min at 22° C. under shaking, the amount of [3H]5′AMP was quantified with a scintillation counter (MicroBeta, Perkin Elmer). The results were expressed as a percent inhibition of the control enzyme activity. […]

[2] = target: T2, Human phosphodiesterase-7A1 (Homo sapiens, UniProt Q13946); assay: PDE7A1 (h) assay; format: biochemical
T2 construct: host or cells: Sf9 cells
T2 sequence (Q13946 whole entry): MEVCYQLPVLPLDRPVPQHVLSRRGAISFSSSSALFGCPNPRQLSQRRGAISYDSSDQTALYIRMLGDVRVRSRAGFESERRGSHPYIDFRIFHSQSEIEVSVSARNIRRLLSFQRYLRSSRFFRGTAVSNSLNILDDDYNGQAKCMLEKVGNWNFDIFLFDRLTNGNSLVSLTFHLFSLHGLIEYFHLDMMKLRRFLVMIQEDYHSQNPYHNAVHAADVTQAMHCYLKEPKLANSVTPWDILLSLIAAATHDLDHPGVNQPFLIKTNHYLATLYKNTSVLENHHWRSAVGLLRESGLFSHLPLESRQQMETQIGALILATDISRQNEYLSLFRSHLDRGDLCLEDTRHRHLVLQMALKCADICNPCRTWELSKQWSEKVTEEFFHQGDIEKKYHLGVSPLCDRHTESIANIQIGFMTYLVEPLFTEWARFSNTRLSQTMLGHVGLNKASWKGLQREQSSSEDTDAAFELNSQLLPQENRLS
Protocol: The test compound (compound 72), reference compound or water (control) were added to a buffer containing 40 mM Tris/HCl (pH 7.4), 8 mM MgCl2 and 1.7 mM EGTA/NaOH, 1.8 μM cAMP and 1 μCi [3H]cAMP. Thereafter, the reaction was initiated by addition of the enzyme (about 2 ng) and the mixture was incubated for 15 min at 22° C. For basal control measurements, the enzyme was omitted from the reaction mixture. Following incubation SPA beads were added. After 30 min at 22° C. under shaking, the amount of [3H]5′AMP was quantified with a scintillation counter (MicroBeta, Perkin Elmer). The results were expressed as a percent inhibition of the control enzyme activity. The standard inhibitory reference compound was EHNA, which was tested in each experiment at several concentrations to obtain an inhibition curve from which its IC50 value was calculated. • Human phosphodiesterase-7A1 quantified by measuring the formation of 5′AMP from cAMP using a human recombinant enzyme expressed in Sf9 cells
as §2, with “7.4) and” for “7.4),”, “MgCl2, 63” for “MgCl2 and 1.7 mM EGTA/NaOH, 450”, “0.035” for “0.25”

[3] = target: T3, Human phosphodiesterase-4D2 (Homo sapiens, UniProt Q08499); assay: PDE4D2 (h) assay; format: biochemical
T3 construct: host or cells: Sf9 cells
T3 sequence (Q08499 303-809 limits assumed): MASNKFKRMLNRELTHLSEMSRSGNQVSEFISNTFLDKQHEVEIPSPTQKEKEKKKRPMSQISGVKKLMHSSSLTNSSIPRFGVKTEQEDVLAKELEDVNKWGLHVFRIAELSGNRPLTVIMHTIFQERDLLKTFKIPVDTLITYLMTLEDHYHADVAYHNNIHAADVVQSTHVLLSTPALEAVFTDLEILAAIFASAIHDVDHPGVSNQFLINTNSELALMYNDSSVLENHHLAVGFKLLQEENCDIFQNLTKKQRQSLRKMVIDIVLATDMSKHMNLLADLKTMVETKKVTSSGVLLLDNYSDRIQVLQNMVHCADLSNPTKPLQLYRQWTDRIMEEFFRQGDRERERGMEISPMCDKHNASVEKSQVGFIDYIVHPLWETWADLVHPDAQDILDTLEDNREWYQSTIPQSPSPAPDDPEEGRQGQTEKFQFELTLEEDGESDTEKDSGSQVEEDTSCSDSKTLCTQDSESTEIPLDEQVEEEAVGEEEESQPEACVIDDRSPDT
Protocol: as §1, with “7.4),” for “7.4) and”, “MgCl2 and 1.7 mM EGTA/NaOH,” for “MgCl2,”, “1.2” for “10”, “phosphodiesterase-4D2” for “phosphodiesterase-4B1”
as §2, with “7.4) and” for “7.4),”, “MgCl2,” for “MgCl2 and 1.7 mM EGTA/NaOH,”, “0.0125” for “0.25”, “(Topcount, Packard).” for “(MicroBeta, Perkin Elmer).”

[4] = target: T4, human ENT1 (Homo sapiens, UniProt Q99808); assay: Uridine transport inhibition assay (3H-uridine uptake, MDCKII-ENT1-LV cells); format: cell-based; conditions: 3H-uridine (1 μM), 1 min at 25° C.
T4 sequence (Q99808 1-456): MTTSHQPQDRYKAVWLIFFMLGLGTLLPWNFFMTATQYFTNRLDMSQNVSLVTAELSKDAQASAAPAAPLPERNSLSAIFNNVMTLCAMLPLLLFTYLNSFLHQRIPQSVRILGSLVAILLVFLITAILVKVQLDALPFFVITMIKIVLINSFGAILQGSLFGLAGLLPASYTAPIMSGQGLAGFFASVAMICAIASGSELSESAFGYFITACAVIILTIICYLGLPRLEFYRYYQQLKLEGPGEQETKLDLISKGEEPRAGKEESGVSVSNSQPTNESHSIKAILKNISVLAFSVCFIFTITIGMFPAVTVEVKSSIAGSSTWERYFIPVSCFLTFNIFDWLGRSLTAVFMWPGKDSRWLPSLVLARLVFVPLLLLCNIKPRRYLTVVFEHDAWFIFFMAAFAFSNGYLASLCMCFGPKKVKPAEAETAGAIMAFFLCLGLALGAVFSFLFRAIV
Source text: Purpose. The aim of this study was to determine the potency of equilibrative nucleoside transporter 1 (ENT1) inhibitors by measuring ENT1-mediated transport is the cellular uptake assay. The human ENT1 transporter can be stably expressed in Madin-Darby Canine Kidney II (MDCKII) cells via transduction. Uridine is efficiently transported by ENT1 and is used as probe in the assay as 3H-uridine. The interaction is detected as the modulation of the initial rate of 3H-uridine transport by human ENT1 into MDCKII-ENT1-LV cells stably expressing ENT1 uptake transporter.

T1 sequence (Q07343 whole entry): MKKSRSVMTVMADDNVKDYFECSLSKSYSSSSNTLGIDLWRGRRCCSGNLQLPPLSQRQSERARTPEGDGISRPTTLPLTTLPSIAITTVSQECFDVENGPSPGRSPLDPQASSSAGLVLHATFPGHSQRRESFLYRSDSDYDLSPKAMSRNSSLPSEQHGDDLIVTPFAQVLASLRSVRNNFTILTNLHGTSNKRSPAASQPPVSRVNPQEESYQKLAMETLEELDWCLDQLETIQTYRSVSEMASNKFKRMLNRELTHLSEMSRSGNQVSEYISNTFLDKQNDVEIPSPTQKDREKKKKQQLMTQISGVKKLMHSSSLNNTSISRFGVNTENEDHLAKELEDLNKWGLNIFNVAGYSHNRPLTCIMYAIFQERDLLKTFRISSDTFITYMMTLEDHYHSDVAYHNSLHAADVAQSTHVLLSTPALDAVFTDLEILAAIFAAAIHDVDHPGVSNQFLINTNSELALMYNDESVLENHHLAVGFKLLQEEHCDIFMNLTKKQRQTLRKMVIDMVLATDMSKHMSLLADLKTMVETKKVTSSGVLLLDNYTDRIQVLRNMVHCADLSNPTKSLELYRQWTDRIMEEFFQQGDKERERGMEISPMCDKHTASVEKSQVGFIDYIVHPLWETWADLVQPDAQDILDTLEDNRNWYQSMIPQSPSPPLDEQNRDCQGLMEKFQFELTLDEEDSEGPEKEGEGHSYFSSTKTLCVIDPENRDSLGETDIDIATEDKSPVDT

COCCN(CCOC)c1nc(N2CCN(C)C(=O)C2)c2nc(N(CCOC)CCOC)nc(N3CCC(OC)CC3)c2n1 [Compound 72, 4-(2,6-bis(bis(2-methoxyethyl)amino)-8-(4-methoxypiperidin-1-yl)pyrimido[5,4-d]pyrimidin-4-yl)-1-methylpiperazin-2-one]
IC50 [1]: 1 to 10 µM
IC50 [2]: > 10 µM
IC50 [3]: 1 to 10 µM
IC50 [4]: < 0.1 µM
